Here are results for 20 compounds from patent US9421209B2, “Kinase modulators” (Rhizen Pharmaceuticals SA, priority 2009, dated 2016).

In series [1] the target is P110 δ/Pi3K δ (Homo sapiens, UniProt O00329). In words: Fluorescent (HTRF) determination of PI3K enzyme activity, δ isoform. In kind it is biochemical. The arrangement: inhibition: dose or concentration left out as unconfirmed. The source says: Assay 1: Fluorescent determination of PI3Kinase Kinase enzyme activity
Phosphoinositide 3 kinases (PI3K) belong to a class of lipid kinases that play a critical role in the regulation of several key cellular processes. The PI3K are capable of phosphorylating the 3-hydroxy position of phosphoinositols thereby generating second messengers involved in downstream signalling events. The homogenous time resolved fluorescence (HTRF) assay allows detection of 3,4,5-triphosphate (PIP3) formed as a result of phosphorylation of phosphotidylinositol 4,5-biphosphate (PIP2) by PI3K isoforms such as α, β, γ or δ.
PI3K isoform activity for α, β, γ or δ was determined using a PI3K human HTRF™ Assay Kit (Millipore, Billerica, Mass.) with modifications. All incubations were carried out at room temperature. […] After the initial incubation, 5 μl/well of 400 μM ATP was added and incubated for an additional 30 minutes. Reaction was terminated by adding 5 μl/well stop solution (Millipore, Billerica, Mass.). Five microliters of detection mix (Millipore, Billerica, Mass.) were then added to each well and was incubated for 6-18 h in the dark. […] Data were analyzed using Graphpad Prism (Graphpad software; San Diego Calif.) for IC50 determination. Percent inhibition was calculated based on the values for the blank and enzyme controls.

Structures are written as SMILES. Read-outs that look alike come from different tables or passages of the source.

Sequence of P110 δ/Pi3K δ (O00329 whole entry, canonical isoform): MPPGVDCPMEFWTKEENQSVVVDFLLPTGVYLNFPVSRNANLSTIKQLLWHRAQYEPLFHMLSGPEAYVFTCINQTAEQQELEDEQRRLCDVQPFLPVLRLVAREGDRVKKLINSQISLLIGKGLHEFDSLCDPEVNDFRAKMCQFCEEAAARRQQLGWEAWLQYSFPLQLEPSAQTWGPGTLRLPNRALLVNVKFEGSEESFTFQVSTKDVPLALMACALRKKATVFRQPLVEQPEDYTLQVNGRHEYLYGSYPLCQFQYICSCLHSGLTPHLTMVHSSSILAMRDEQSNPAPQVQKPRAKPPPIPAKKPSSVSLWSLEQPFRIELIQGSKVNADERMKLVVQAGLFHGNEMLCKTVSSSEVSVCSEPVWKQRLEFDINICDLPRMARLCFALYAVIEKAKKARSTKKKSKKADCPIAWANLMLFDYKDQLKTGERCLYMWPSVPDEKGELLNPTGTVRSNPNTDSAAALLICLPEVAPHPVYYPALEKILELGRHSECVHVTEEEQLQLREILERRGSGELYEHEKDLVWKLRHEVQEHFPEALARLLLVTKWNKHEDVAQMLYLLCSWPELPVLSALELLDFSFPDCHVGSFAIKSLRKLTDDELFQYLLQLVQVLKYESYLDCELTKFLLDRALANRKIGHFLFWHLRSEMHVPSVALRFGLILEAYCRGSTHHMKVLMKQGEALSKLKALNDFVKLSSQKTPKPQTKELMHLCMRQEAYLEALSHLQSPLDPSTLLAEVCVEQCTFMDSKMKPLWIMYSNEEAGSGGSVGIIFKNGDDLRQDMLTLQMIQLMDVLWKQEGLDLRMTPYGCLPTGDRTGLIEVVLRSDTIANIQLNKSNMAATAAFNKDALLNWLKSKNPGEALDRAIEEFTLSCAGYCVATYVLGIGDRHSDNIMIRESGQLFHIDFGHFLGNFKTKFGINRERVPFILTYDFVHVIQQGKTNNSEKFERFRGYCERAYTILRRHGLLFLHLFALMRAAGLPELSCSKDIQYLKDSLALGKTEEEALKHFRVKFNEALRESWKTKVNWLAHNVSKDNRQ
Sequence of P110 δ/Pi3K δ (P27986 whole entry partner, canonical isoform): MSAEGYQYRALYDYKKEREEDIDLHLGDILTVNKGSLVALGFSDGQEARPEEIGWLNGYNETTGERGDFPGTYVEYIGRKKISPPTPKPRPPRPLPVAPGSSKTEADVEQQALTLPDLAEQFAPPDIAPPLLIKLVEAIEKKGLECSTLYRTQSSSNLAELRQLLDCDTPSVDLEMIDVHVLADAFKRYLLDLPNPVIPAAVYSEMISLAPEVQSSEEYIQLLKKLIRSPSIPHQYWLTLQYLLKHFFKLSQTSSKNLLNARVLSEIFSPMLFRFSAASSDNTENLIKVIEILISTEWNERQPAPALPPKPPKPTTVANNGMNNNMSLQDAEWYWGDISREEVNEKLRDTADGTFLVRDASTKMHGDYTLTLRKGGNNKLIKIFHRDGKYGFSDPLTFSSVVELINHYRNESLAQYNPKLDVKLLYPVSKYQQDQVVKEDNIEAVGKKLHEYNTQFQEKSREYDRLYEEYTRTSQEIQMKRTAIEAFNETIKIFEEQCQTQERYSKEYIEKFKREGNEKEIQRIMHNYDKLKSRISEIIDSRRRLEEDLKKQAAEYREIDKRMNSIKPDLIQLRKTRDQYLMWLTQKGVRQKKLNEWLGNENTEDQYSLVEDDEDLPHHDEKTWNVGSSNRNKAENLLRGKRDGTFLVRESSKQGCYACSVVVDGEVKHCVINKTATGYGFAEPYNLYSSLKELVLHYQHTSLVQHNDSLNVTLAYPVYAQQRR

As to `CC(c1oc2ccc(F)cc2c(=O)c1-c1cccc(F)c1)n1nc(-c2cccc(O)c2)c2c(N)ncnc21` (stereo not drawn) [Example 121a, 2-(1-(4-amino-3-(3-hydroxyphenyl)-1H-pyrazolo[3,4-d]pyrimidin-1-yl)ethyl)-6-fluoro-3-(3-fluorophenyl)-4H-chromen-4-one], the melting point is 193 to 196 °C. This compound had an inhibition in series [1] of 50 to 100%.
As to `Nc1ncnc2c1ncn2Cc1oc2ccccc2c(=O)c1-c1ccc(F)cc1` [Example 16, 2-[(6-Amino-9H-purin-9-yl)methyl]-3-(4-fluorophenyl)-4H-chromen-4-one], the melting point was in the range of 212 to 216 °C. In addition, in series [1], the inhibition at 1 µM is below 50%.
For `CC(c1oc2ccccc2c(=O)c1-c1cccc(F)c1)n1nc(-c2ccccc2CO)c2c(N)ncnc21` (stereo not drawn) [Example 81, 2-(1-(4-amino-3-(2-(hydroxymethyl)phenyl)-1H-pyrazolo[3,4-d]pyrimidin-1-yl)ethyl)-3-(3-fluorophenyl)-4H-chromen-4-one], the melting point was 185 to 189 °C. The same compound yielded an inhibition in series [1] below 50%.
For `CC(c1oc2ccccc2c(=O)c1-c1cccc(F)c1)n1nc(-c2cccc(C(=O)NC3CC3)c2)c2c(N)ncnc21` (stereo not drawn) [Example 176, 3-(4-amino-1-(1-(3-(3-fluorophenyl)-4-oxo-4H-chromen-2-yl)ethyl)-1H-pyrazolo[3,4-d]pyrimidin-3-yl)-N-cyclopropylbenzamide], in that order: 127 to 132 °C and below 50%.
`CC(c1oc2ccccc2c(=O)c1-c1cccc(F)c1)n1nc(-c2cccc3[nH]ncc23)c2c(N)ncnc21` (stereo not drawn) [Example 77, 2-(1-(4-amino-3-(1H-indazol-4-yl)-1H-pyrazolo[3,4-d]pyrimidin-1-yl)ethyl)-3-(3-fluorophenyl)-4H-chromen-4-one] gave a melting point of 231 to 233 °C. Besides, in series [1], the inhibition at 1 µM is 50 to 100%.
Taken in the same sequence, the figures for `Cn1c(=O)c2c(ncn2Cc2oc3ccc(Br)cc3c(=O)c2-c2ccccc2)n(C)c1=O` [Example 20, 7-[(6-Bromo-4-oxo-3-phenyl-4H-chromen-2-yl)methyl]-1,3-dimethyl-1H-purine-2,6(3H,7H)-dione] were 253 to 255 °C and below 50%.
In turn, `CC(c1oc2ccccc2c(=O)c1-c1cccc(F)c1)n1nc(-c2csc3ccccc23)c2c(N)ncnc21` (stereo not drawn) [Example 173, 2-(1-(4-amino-3-(benzo[b]thiophen-3-yl)-1H-pyrazolo[3,4-d]pyrimidin-1-yl)ethyl)-3-(3-fluorophenyl)-4H-chromen-4-one] showed a melting point of 226 to 229 °C. In addition, the inhibition in series [1] was 50 to 100%.
For the compound `CC(c1oc2ccccc2c(=O)c1-c1cccc(F)c1)n1nc(-c2ccc(Cl)c(O)c2)c2c(N)ncnc21` (stereo not drawn) [Example 95a, 2-(1-(4-amino-3-(4-chloro-3-hydroxyphenyl)-1H-pyrazolo[3,4-d]pyrimidin-1-yl)ethyl)-3-(3-fluorophenyl)-4H-chromen-4-one], the melting point was 134 to 136 °C. This compound also had an inhibition in series [1] of 50 to 100%. In addition, the IC50 in series [1] (read-out: P110 δ/ Pi3K δ IC 50 nM) is below 250 nM.
Turning to `Cc1c2ccc(-c3nn(C(C)c4oc5ccccc5c(=O)c4-c4cccc(F)c4)c4ncnc(N)c34)cc2nn1C` (stereo not drawn) [Example 171, 2-(1-(4-amino-3-(2,3-dimethyl-2H-indazol-6-yl)-1H-pyrazolo[3,4-d]pyrimidin-1-yl)ethyl)-3-(3-fluorophenyl)-4H-chromen-4-one], the melting point is 269 to 274 °C. Also, the inhibition in series [1] is below 50%.
The compound `CC(c1oc2ccccc2c(=O)c1-c1ccccc1F)n1cnc2c(N)ncnc21` (stereo not drawn) [Example 34, 2-(1-(6-Amino-9H-purin-9-yl)ethyl)-3-(2-fluorophenyl)-4H-chromen-4-one] displayed a melting point of 247 to 250 °C. In series [1], this compound yielded an inhibition at 1 µM of 50 to 100%.
On to `Nc1ncnc2c1c(-c1cccc3[nH]ncc13)nn2Cc1oc2ccccc2c(=O)c1-c1ccccc1` [Example 62, 2-((4-amino-3-(1H-indazol-4-yl)-1H-pyrazolo[3,4-d]pyrimidin-1-yl)methyl)-3-phenyl-4H-chromen-4-one], for which the melting point was in the range of 248 to 252 °C. The compound further displayed an inhibition at 1 µM in series [1] below 50%.
For `O=c1c(-c2ccccc2)c(CSc2ncnc3[nH]cnc23)oc2ccccc12` [Example 11, 2-((9H-Purin-6-ylthio)methyl)-3-phenyl-4H-chromen-4-one], the melting point was in the range of 208 to 209 °C. Also, the inhibition at 1 µM in series [1] is below 50%.
`COc1ccc(-c2nn(C(C)c3oc4ccccc4c(=O)c3-c3cccc(F)c3)c3ncnc(N)c23)cc1Cl` (stereo not drawn) [Example 157, 2-(1-(4-amino-3-(3-chloro-4-methoxyphenyl)-1H-pyrazolo[3,4-d]pyrimidin-1-yl)ethyl)-3-(3-fluorophenyl)-4H-chromen-4-one]: the melting point is 246 to 249 °C. In series [1], this compound yielded an inhibition below 50%.
Take `CC(c1oc2ccccc2c(=O)c1-c1cccc(F)c1)n1nc(-c2cnc(N)nc2)c2c(N)ncnc21` (stereo not drawn) [Example 93, 2-(1-(4-amino-3-(2-aminopyrimidin-5-yl)-1H-pyrazolo[3,4-d]pyrimidin-1-yl)ethyl)-3-(3-fluorophenyl)-4H-chromen-4-one]: the melting point was 264 to 268 °C. Also, the inhibition in series [1] lay within 50 to 100%.
Take `C[C@H](Nc1ncnc2[nH]cnc12)c1oc2ccccc2c(=O)c1-c1ccccc1` [Example 73, (S)-2-(1-(9H-purin-6-ylamino)ethyl)-3-phenyl-4H-chromen-4-one]: the melting point lay within 135 to 138 °C. In series [1], this compound gave an inhibition at 1 µM of 50 to 100%.
`Cc1n[nH]c(C)c1-c1nn(C(C)c2oc3ccccc3c(=O)c2-c2cccc(F)c2)c2ncnc(N)c12` (stereo not drawn) [Example 78, 2-(1-(4-amino-3-(3,5-dimethyl-1H-pyrazol-4-yl)-1H-pyrazolo[3,4-d]pyrimidin-1-yl)ethyl)-3-(3-fluorophenyl)-4H-chromen-4-one] showed a melting point of 240 to 243 °C. Besides, in series [1], the inhibition is below 50%.
For `CC(c1oc2ccccc2c(=O)c1-c1cccc(F)c1)n1ncc2c(Cl)ccnc21` (stereo not drawn) [Example 167, 2-(1-(4-Chloro-1H-pyrazolo[3,4-b]pyridin-1-yl)ethyl)-3-(3-fluorophenyl)-4H-chromen-4-one], in that order: 173 to 176 °C and below 50%.
Compound `Nc1ncnc2c1c(-c1cccc(CO)c1)nn2Cc1oc2ccccc2c(=O)c1-c1ccccc1` [Example 61, 2-((4-amino-3-(3-(hydroxymethyl)phenyl)-1H-pyrazolo[3,4-d]pyrimidin-1-yl)methyl)-3-phenyl-4H-chromen-4-one] had a melting point of 219 to 223 °C. Besides, in series [1], the inhibition at 1 µM is below 50%.
For `Cl.O=c1c(-c2ccc(F)cc2)c(CN2CCOCC2)oc2ccccc12` [Example 18a, 3-(4-fluorophenyl)-2-(morpholinomethyl)-4H-chromen-4-one hydrochloride], in that order: 225 to 229 °C and below 50%.
In turn, `Nc1ncnc2c1c(C#CCO)nn2Cc1oc2ccccc2c(=O)c1-c1ccccc1` [Example 59, 2-((4-amino-3-(3-hydroxyprop-1-ynyl)-1H-pyrazolo[3,4-d]pyrimidin-1-yl)methyl)-3-phenyl-4H-chromen-4-one] returned a melting point of 171 to 173 °C. Besides, the inhibition at 1 µM in series [1] was 50 to 100%. In addition, the IC50 in series [1] (read-out: P110 δ/Pi3K δ IC 50 nM) was in the range of 250 to 500 nM.
